Ki data for 44 compounds are collected here from patent US20080318925A1 (ASTRAZENECA AB, priority 2007, published 2008).

Molecules are shown by their SMILES.

The experiment has as its target T1, GABAA2 receptors (α2, β3, γ3 receptor subunits transfected into Sf9 cells) (Homo sapiens, UniProt P47869+Q99928).
T1 construct: host or cells: Sf9 cells (membranes)
T1 sequence (P47869 29-451): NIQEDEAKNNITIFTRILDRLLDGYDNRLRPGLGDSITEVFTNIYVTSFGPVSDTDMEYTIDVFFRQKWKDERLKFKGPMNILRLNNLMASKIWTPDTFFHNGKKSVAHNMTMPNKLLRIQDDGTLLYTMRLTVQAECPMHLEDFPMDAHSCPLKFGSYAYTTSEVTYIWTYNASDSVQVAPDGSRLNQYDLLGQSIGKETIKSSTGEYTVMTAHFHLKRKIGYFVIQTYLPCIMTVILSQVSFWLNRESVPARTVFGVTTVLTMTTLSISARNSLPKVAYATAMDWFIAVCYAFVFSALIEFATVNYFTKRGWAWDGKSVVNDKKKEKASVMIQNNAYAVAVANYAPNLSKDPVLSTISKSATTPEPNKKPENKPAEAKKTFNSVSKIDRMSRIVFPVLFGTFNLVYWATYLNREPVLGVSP
T1 sequence (P28472 26-473 partner): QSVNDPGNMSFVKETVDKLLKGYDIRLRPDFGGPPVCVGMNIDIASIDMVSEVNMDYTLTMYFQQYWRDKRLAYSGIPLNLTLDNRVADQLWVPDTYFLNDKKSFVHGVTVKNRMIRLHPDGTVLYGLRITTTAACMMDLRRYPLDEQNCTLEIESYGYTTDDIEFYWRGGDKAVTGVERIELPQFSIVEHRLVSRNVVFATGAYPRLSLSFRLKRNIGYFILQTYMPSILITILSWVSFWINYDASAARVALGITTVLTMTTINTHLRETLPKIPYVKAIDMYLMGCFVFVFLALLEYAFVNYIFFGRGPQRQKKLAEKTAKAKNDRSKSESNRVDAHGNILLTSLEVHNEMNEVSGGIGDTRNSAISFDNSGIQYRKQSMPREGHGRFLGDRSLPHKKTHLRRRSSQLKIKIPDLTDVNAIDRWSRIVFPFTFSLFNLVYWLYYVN
T1 sequence (Q99928 18-467): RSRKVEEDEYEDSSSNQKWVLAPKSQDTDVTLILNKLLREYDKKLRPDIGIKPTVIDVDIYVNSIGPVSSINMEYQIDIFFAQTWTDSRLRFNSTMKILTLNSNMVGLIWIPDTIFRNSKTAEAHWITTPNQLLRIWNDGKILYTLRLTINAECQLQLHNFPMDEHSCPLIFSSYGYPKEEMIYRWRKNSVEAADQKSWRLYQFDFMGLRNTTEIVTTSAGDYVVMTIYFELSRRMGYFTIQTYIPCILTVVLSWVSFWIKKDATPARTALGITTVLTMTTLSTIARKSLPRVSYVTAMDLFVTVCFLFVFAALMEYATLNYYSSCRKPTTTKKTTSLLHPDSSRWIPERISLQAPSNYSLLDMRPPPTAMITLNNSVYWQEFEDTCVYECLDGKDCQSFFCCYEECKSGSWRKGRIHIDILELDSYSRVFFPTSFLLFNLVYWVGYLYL
The experiment is described as follows: GABAA2 binding method ([3H]-flunitrazepam displacement). The conditions noted are these: [3H]-flunitrazepam ~2 nM, Sf9 membranes, 1 hr at 4° C. As for the experimental part: In some embodiments, the binding test was directed to a subtype of GABAA receptors, such as GABAA1 receptors (i.e., those containing the α1 subunit), GABAA2 receptors (i.e., those containing the α2 subunit), GABAA3 receptors (i.e., those containing the α3 subunit) and GABAA5 receptors (i.e., those containing the α5 subunit).
• Assay and Wash Buffer: 50 mM Tris-Citrate, 200 mM NaCl, pH 7.8 Compounds at 10 mM in DMSO: Put 75 μl in column 1 of compound plate.
Flumazenil, 10 mM (for NSB)
[^3H]-Flunitrazepam (Cat #NET567): Prepare 10× stock=20 nM, [F} in assay=˜2 nM
1. […] Add 5 ul of 30 uM flumazenil to wells 12 D-E for 50% control wells.
2. Spot 2 μl of compound dilutions into dry plate (Automation Program 3). Manually spot 2 μl 10 mM flumazenil into wells 12 F-H for nonspecific control.
3. Make 1:100 dilution in assay buffer (2 μl into 200 μl) and dispense 25 μl compound into assay plates (Automation Program 4).
4. Dispense 200 μl membranes into assay plate (Automation Program 5).
5. Add 25 μl [^3H]-Flunitrazepam (Automation Program 6). Incubate for 1 hr at 4° C.
6. Collect membranes on a cell harvester onto GF/B filter plates (pre-wet with dH2O and wash 5× 400 μl/well, with cold assay buffer. (First 3 washes are considered hot; last two are cold.)
7. Dry plates for 2-3 hours at RT.
8. Add 40 μl Microscint 40/well (Automation Program 7); seal plates. Count on a TopCount.
Data is analyzed by calculating percent of control, IC50, and Ki in an XLfit template. The following formula is used in the templates: […]
On to `CCCNC(=O)c1nnc2c(-c3ccc(F)cc3OC)c(F)ccc2c1N`, for which the affinity corresponds to a Ki of 0.565 nM. Turning to `CCCNC(=O)c1nnc2c(-c3ccc(OC)c(OC)c3OC)c(F)ccc2c1N`, the affinity corresponds to a Ki of 0.6 nM.

As for `CCCNC(=O)c1nnc2c(-c3ccc(OC)cc3F)c(F)ccc2c1N`, the Ki (usually a dissociation constant, usually derived from enzyme kinetics or from competition with a known ligand) turned out to be 0.613 nM. As for `CCCNC(=O)c1nnc2c(-c3cccc(C)c3C)c(F)ccc2c1N`, the figure is 0.615 nM; as for `CCCNC(=O)c1nnc2c(-c3ccc(OC)cc3C(F)(F)F)c(F)ccc2c1N`, 0.624 nM; as for `COc1cccc(F)c1-c1cccc2c(N)c(C(=O)NC3CC3)nnc12`, 0.698 nM.

Turning to `CCCNC(=O)c1nnc2c(-c3cc(Cl)ccc3Cl)cccc2c1N`, affinity was put at a Ki of 0.71 nM. As for `CCCNC(=O)c1nnc2c(-c3cc(F)ccc3C)c(F)ccc2c1N`, the figure is 0.735 nM. `CCCNC(=O)c1nnc2c(-c3cc(C)ccc3F)cccc2c1N` displayed a Ki of 0.852 nM. Under `CCCNC(=O)c1nnc2c(-c3cnc(OC)nc3OC)c(F)ccc2c1N` stands 0.918 nM; under `CCCNC(=O)c1nnc2c(-c3cc(C)ccc3OC)c(F)ccc2c1N`, 0.937 nM. `CCCNC(=O)c1nnc2c(-c3cccc(OC)c3F)c(F)ccc2c1N`: the Ki amounted to 0.941 nM. `CCCNC(=O)c1nnc2c(-c3cc(F)ccc3OC)c(F)ccc2c1N` had an inhibition constant (Ki) of 0.98 nM. Under `CCCNC(=O)c1nnc2c(-c3cc(F)ccc3F)cccc2c1N` stands 0.996 nM; under `CCCNC(=O)c1nnc2c(-c3ccccc3)c(F)ccc2c1N`, 1 nM. Compound `COc1ccc(-c2cccc3c(N)c(C(=O)NC4CC4)nnc23)c(OC)n1` returned a Ki of 1 nM. The compound `CCCNC(=O)c1nnc2c(-c3ccc(F)cc3OCC)c(F)ccc2c1N` returned an inhibitory constant (Ki) of 1.03 nM.

Take `CCCNC(=O)c1nnc2c(-c3cc(Cl)ccc3OC)cccc2c1N`: the affinity, expressed as Ki, was 1.11 nM. Under `CCCNC(=O)c1nnc2c(-c3cccnc3F)cccc2c1N` stands 1.13 nM; under `CCCNC(=O)c1nnc2c(-c3cccc(C#N)c3)cccc2c1N`, 1.18 nM; under `CCCNC(=O)c1nnc2c(-c3cc(OC)ccc3Cl)c(F)ccc2c1N`, 1.25 nM. As for `CCCNC(=O)c1nnc2c(-c3cc(C)ccc3C)c(F)ccc2c1N`, the figure is 1.31 nM. Compound `CCCNC(=O)c1nnc2c(-c3cc(Cl)ccc3Cl)c(F)ccc2c1N` came in with an inhibition constant Ki of 1.34 nM.

Consider `CCCNC(=O)c1nnc2c(-c3cc(C(F)(F)F)ccc3Cl)cccc2c1N`, for which the Ki worked out at 1.36 nM. For the compound `CCCNC(=O)c1nnc2c(-c3cc(F)c(OC)cc3F)cccc2c1N`, the inhibition constant Ki was 1.49 nM. As for `CCCNC(=O)c1nnc2c(-c3ccncc3)cccc2c1N`, the figure is 1.67 nM; as for `CCCNC(=O)c1nnc2c(-c3ccc(C)nc3F)cccc2c1N`, 1.67 nM. Under `CCCNC(=O)c1nnc2c(-c3cnccc3C)cccc2c1N` stands 1.68 nM. Under `CCCNC(=O)c1nnc2c(-c3ccc(F)cc3F)cccc2c1N` stands 1.72 nM; under `CCCNC(=O)c1nnc2c(-c3cc(OC)ccc3F)cccc2c1N`, 1.73 nM; under `CCCNC(=O)c1nnc2c(-c3cccc(Cl)c3Cl)cccc2c1N`, 1.82 nM. The compound `CCCCNC(=O)c1nnc2c(-c3cnccc3OC)cccc2c1N` had an inhibitory constant (Ki) of 1.84 nM. As for `COc1ccc(-c2cccc3c(N)c(C(=O)NC4CC4)nnc23)c(OC)c1`, the figure is 2.07 nM; as for `CCCNC(=O)c1nnc2c(-c3cccnc3OC)cccc2c1N`, 2.1 nM; as for `CCCNC(=O)c1nnc2c(-c3cc(C(F)(F)F)cc(C(F)(F)F)c3)cccc2c1N`, 356 nM. Regarding `CNC(=O)c1nnc2c(-c3cnc(OC)nc3OC)cccc2c1N`, the affinity, expressed as Ki, was 514 nM.

`CCCNC(=O)c1nnc2c(-c3c(OC)cccc3OC)cccc2c1N`: the affinity, expressed as Ki, was 624 nM. With `CCNC(=O)c1nnc2c(-c3cnc(OC)c(F)c3)cccc2c1N`, affinity was put at a Ki of 9 nM.

For `COc1ccc(F)cc1-c1cccc2c(N)c(C(=O)NC3CC3)nnc12`, the Ki amounted to 8.22 nM.

`COc1ccncc1-c1cccc2c(N)c(C(=O)NC3CC3)nnc12` gave a Ki of 0.785 nM.

As for `COc1ncccc1-c1cccc2c(N)c(C(=O)NC3CC3)nnc12`, the affinity, expressed as Ki, was 0.501 nM. Under `COc1ccc(-c2cccc3c(N)c(C(=O)NC4CCC4)nnc23)c(OC)c1` stands 0.927 nM. The compound `Cc1ccc(-c2cccc3c(N)c(C(=O)NC4CC4)nnc23)cn1` returned an inhibition constant (Ki) of 4.02 nM. Under `CCNC(=O)c1nnc2c(-c3ccc(OC)cc3OC)cccc2c1N` stands 4.54 nM.
